# Measurements: the METLIN SMRT retention time set (Domingo-Almenara et al. 2019)
# Assay: gradient 5% acetonitrile 3 min, to 50% in 2 min, to 85% in 15 min, held 3 min, 100 µL/min
# Conditions: column: Zorbax Extend-C18 2.1 x 50 mm; eluents: water / acetonitrile, 0.1% formic acid
# Summary of the method: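 Mixtures of ~100 pure standards were chromatographed on a Zorbax Extend-C18 column (2.1 × 50 mm, 1.8 μm) at 100 μL/min using water and acetonitrile, each with 0.1% formic acid. Detection used a quadrupole time-of-flight mass spectrometer in positive and negative ionization mode, and data collection spanned 3 months. Retention time was obtained from adduct peaks picked computationally and each checked manually.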
row,SMILES,RP-LC retention time [s]
1,Cc1nc(-c2cn(-c3cccc(Cl)c3)nn2)no1,858
2,O=S(=O)(Cc1ccccc1F)N1CCCC(Cn2c(C3CC3)nc3cccnc32)C1 (stereo not given),732
3,O=C(NCC1CCCCC1)c1ccc(-c2nc3cccnc3n2C2CCCCC2)cc1,1130
4,COCCNC(=O)c1ccccc1-c1ocnc1C(=O)OC,611
5,CCc1nc2nc3c(cn2n1)C(=O)CC(C)(C)C3,693
6,COc1nn(C)cc1C(=O)N1CCC(C(=O)NCc2cccs2)CC1,613
7,Cc1c(CNCc2ccco2)c(C(=O)O)c(C)n1Cc1cccc(F)c1,684
8,CC(CCc1ccco1)NC(=O)c1nnn(-c2ccccc2)c1-c1ccccn1 (stereo not given),862
9,O=C(C1CC(=O)N(C2CCCCC2)C1)N1CCCCCC1 (stereo not given),763
10,CCn1nc(C)c2ccn(CC(=O)NCc3cc(F)cc(F)c3)c(=O)c21,757
11,Cc1[nH]nc2ccc(-c3cncc(OC[C@@H](N)Cc4ccccc4)c3)cc12,624
12,CCOC(=O)c1noc2nc(C)nc(Nc3ccc(Cl)cc3)c12,1200
13,CCOC(=O)C1CCCN(c2c(NCC3COc4ccccc4O3)c(=O)c2=O)C1 (stereo not given),796
14,COCCN1C(=O)c2ccccc2C(C(=O)NCc2ccccc2OC)C12CCCC2 (stereo not given),855
15,Cc1cc(S(=O)(=O)N2CC(F)(F)C[C@H]2CN2CCc3ccccc3C2)ccc1F,790
16,CCC(=O)N1CCc2cc(N3CC(C(=O)Nc4ccccc4OC)CC3=O)ccc21 (stereo not given),758
17,CN(C)C(=O)OCC1COc2ccccc2O1 (stereo not given),883
18,Cc1ccccc1Cc1nc(-c2cccc(-c3ccnn3C)c2)no1,1110
19,CCCCNC(=O)CCC(=O)Nc1ccc2nc(N3CCN(C)CC3)cc(C)c2c1,520
20,Cc1ccc(S(=O)(=O)N2CCC(n3c(-c4ccoc4)nc4cccnc43)C2)cc1F (stereo not given),910
21,Cc1cccc(N2C(=O)CN(CC(C)C)[C@H]3CS(=O)(=O)C[C@H]32)c1,836
22,C=CCNC(=O)C1CCCN(c2ncnc3c2oc2ccccc23)C1 (stereo not given),674
23,CN(CCc1ccccn1)C(=O)c1cn2ccnc(-c3ccccc3)c2n1,563
24,Cn1cc(CCNS(=O)(=O)c2ccc(Br)s2)c2cccnc21,779
25,Cc1ccc2[nH]c(C(N)=O)c(N3CCCC3=O)c2c1,646
26,CCNC(=O)C(=O)NCC(c1ccc2c(c1)CCCN2C)N1CCCC1 (stereo not given),615

row,SMILES,RP-LC retention time [s]
1,COc1ccc(N2CCN(C(=O)c3ccc4c(c3)N(C)C(=O)C3CCCCN43)CC2)cc1 (stereo not given),832
2,Cc1ccccc1CNC(=O)c1cn(-c2ccc(-c3nc(C(C)(C)C)no3)cn2)cn1,1100
3,COc1cc(-c2nc3ccccn3c2Nc2ccc3c(c2)OCCO3)ccc1O,629
4,Cc1ccc(-c2nc3cnccn3c2Nc2ccccc2C)cc1,969
5,CC(C)n1c(=O)sc2cc(S(=O)(=O)N3CCC(C(=O)Nc4ccc(Cl)cc4)CC3)ccc21,1050
6,CC(NC(=O)c1cc(-c2ccccc2)cn1C)c1cccnc1 (stereo not given),662
7,CCNC(=O)c1cn(-c2ccc(NC(=O)C3CC3)cn2)cn1,615
8,Cc1ccc(NC(=O)Cn2c(N3CCOCC3)nc(C)cc2=O)c(C)c1,658
9,Cc1ccc(Nc2c(-c3ccc(O)cc3)nc3ncccn23)c(C)c1,719
10,Cc1cc(NC(=O)Cn2ccn3nc(-c4ccccc4)c(CO)c3c2=O)ccc1Br,917
11,CN1CC(=O)N(CC(=O)Nc2ccc(Cl)c(C(F)(F)F)c2)c2ccccc2C1=O,826
12,COc1ccc(-c2cc(C(N)=O)c(C)n2C)cc1,729
13,CCN1CCc2ncnc(SCC(=O)Nc3ccc(Cl)cc3C(F)(F)F)c2C1,597
14,Cc1ccc(-c2nc(Cn3ccn4nc(-c5ccc(F)cc5)cc4c3=O)c(C)o2)cc1,1220
15,CC(C)N1C(=O)C(C)(C(=O)NCc2ccccc2Cl)Oc2cccnc21 (stereo not given),974
16,COc1cccc(-n2c(=O)c(C(=O)Nc3ccc(Cl)cc3)c(O)c3cccnc32)c1,1340
17,COc1cc(OC)c(NC(=O)Cn2ccn3nc(-c4ccccc4)c(CO)c3c2=O)cc1Cl,849
18,Cc1nn(-c2ccc(N3CCCCC3)nn2)c(C)c1CCC(=O)NCCCc1ccco1,665
19,O=C(c1ccncc1)N1CC(C(=O)N2CCN(c3ccccn3)CC2)C2(CCCCC2)C1 (stereo not given),570
20,O=C(c1cccs1)N1CCC(F)(C(=O)NC2CC2)CC1,634
21,COC[C@@H]1CN(S(=O)(=O)Cc2ccccc2)C[C@H]1c1ccncc1,637
22,CC(C)CN(Cc1cccnc1)C1CN(C(=O)NCc2ccc(F)cc2)C1,640
23,Cc1cc(C)c(-c2csc(Nc3ccccn3)n2)cc1C,1030
24,COc1ccc(CNC2=NCCNC23CCN(S(=O)(=O)c2ccc(CC(C)C)cc2)CC3)cc1,878
25,CCOc1ccc(NC(=O)Nc2c(-c3cccc(C)c3)nc3ccccn23)cc1,697

# Results, then the molecule that gave them:
row,RP-LC retention time [s],SMILES
1,747,COC(=O)c1ncn2c1C(=O)N(c1ccc(C)cc1)C(C)(C(=O)NCc1ccc(C)cc1)C2 (stereo not given)
2,1100,Cn1cc(S(=O)(=O)N2CCCCC2)cc1C(=O)Nc1ccc(F)c(Cl)c1
3,558,O=C(Cc1csc(-n2cccc2)n1)N1CCC(c2nc3ccccc3[nH]2)CC1
4,680,O=C(CCC1CCN(c2cc(NC3CC3)ncn2)CC1)NCc1ccc(Cl)cc1
5,613,O=C(CNC(=O)c1cccc(F)c1)Nc1nc2ccccc2[nH]1
6,908,O=C(C1CC1)N1c2ccccc2CC1c1nc(C2CC2)no1 (stereo not given)
7,700,COc1ccccc1NC(=O)Nc1c(-c2ccc(C)cc2)nc2ccccn12
8,894,CN(C)S(=O)(=O)c1ccc(-c2nnc(C(=O)NCc3ccccc3Cl)o2)cc1
9,638,CCOC(=O)C1CCC(CNC(=O)Nc2cc3c(cc2N2CCCC2)n(C)c(=O)n3C)CC1 (stereo not given)
10,580,CNC(=O)[C@@H]1CN(C(=O)c2ccc3c(c2)OCO3)C[C@H]1c1n[nH]c(C)n1
11,974,O=C(Cn1cccc1-c1nnc(C2CCC2)o1)Nc1cccc(Br)c1
12,713,COc1ccc(NC(=O)CSc2nc3nc(C)cc(C)n3n2)c(OC)c1
13,747,CCc1ccc(C(=O)Nc2cc3c(cc2S(=O)(=O)C(C)C)n(C)c(=O)n3C)cc1
14,868,O=C(NC1CC1)c1ccc(OCC2CCN(C(=O)Cc3ccc(Cl)cc3)CC2)cc1
15,622,Cn1nc(CN2CCCC2)c2c1CCN(S(=O)(=O)c1ccc(F)cc1F)C2
16,754,Cc1ccc(-c2ncc(C(=O)N(C)C)c(-c3ccncc3)n2)cc1
17,1150,Cc1sc(NC(=O)c2cccc(F)c2)nc1-c1ccccc1
18,965,Cc1sc(-c2nnc(C3CCC3)o2)cc1NC(=O)c1ccc(C#N)cc1
19,862,Cn1c(=O)c2cc(C(=O)N3CCN(c4ccc(Cl)cc4)CC3)sc2n(C)c1=O
20,908,COc1cc(OC)cc(-c2noc(CCn3nc(-c4ccc5c(c4)OCO5)ccc3=O)n2)c1

row,RP-LC retention time [s],SMILES
1,801,O=C(CN1C(=O)NC(c2ccccc2Cl)C2=C1COC2=O)NCc1ccccc1Cl (stereo not given)
2,1110,Cc1ccc(C)c(-c2nc(-c3cccc(-c4ccnn4C)c3)no2)c1
3,949,COc1ccc(-c2noc(Cc3nnc(-c4ccc(OC)cc4)o3)n2)cc1
4,1030,CC1CCN(c2cnn(CC(=O)Nc3ccc4c(c3)CCC4)c(=O)c2Cl)CC1
5,982,Cc1cc(C)n(-c2c3c(nc4c(-c5ccccc5)c(C)nn24)CCC3)n1
6,820,COc1ccc(C(=O)N2CCC(COc3ccc(C(=O)NC(C)C)cc3)CC2)cc1
7,1030,O=C(Nc1ccc(Br)c(F)c1)c1cnc(-c2ccccc2)nc1-c1ccncc1
8,625,CNC(=O)N1CCc2ccc(C(=O)NC(C)C)cc21
9,746,O=C(Nc1ccc(F)cc1)C1CCN(C(=O)C2Sc3ccccc3NC2=O)CC1 (stereo not given)
10,794,COc1cccc(S(=O)(=O)N2CCC(c3nc(C(=O)N(C)C)c(C)o3)CC2)c1
11,623,CS(=O)(=O)Nc1ccc(CC(=O)NCC(F)(F)F)cc1
12,703,Cn1nc2ccc(S(=O)(=O)N3CCCCC3)cn2c1=O
13,950,Cc1ccc(C)n1-c1nnc(N2CCCC(C(=O)NCCc3c[nH]c4ccccc34)C2)s1 (stereo not given)
14,747,CCOc1ccc(CNC(=O)c2ccc3c(c2)NC(=O)C2CCCCN32)cc1OC (stereo not given)
15,966,O=C(Cc1c(Sc2ccc(F)cc2)[nH]c2ccccc12)N1CCN(c2ncccn2)CC1
16,819,CSc1cccc(N2C=C(C(=O)N3CCCC3)S(=O)(=O)c3ccccc32)c1
17,1170,COc1cccc(-c2csc(-c3nnn(-c4ccc(Cl)cc4)c3N)n2)c1
18,773,Cc1ccc(Nc2c(-c3c(F)cccc3Cl)nc3ccc(C)cn23)cc1
19,756,O=C(c1cccc(Br)c1)N1CCN(Cc2noc3ccccc23)CC1
